Consider three molecules from US20140296149A1, “Compositions and Methods for the Treatment of Cardiac Surgery-Associated Acute Kidney Injury with Annexin A1 Peptide” (priority 2010, published 2014).

No end group written: not given here.

In assay [1] the test system is splanchnic artery occlusion and reperfusion injury. The conditions noted are these: by affecting neutrophil migration; cited from earlier work.
Assay [2] has as its system experimental myocardial ischemia-reperfusion. The conditions noted are these: by attenuating neutrophil migration; cited from earlier work.
A further assay has as its system rat model of CPB/DHCA. Put plainly: Preclinical rat model of CPB/DHCA, cardiac-surgery associated AKI (Example I, i.p.). In kind it is in vivo. The protocol:
FIGS. 1A-B. ANXA1 short peptide (ANXA1sp) treatment ameliorates proximal tubular apoptosis and inhibits the activity of caspase-3 induced by ischemia-reperfusion injury following deep hypothermia circulatory arrest (DHCA). Quantification of apoptosis was determined by terminal deoxynucleotidyl transferase dUTP nick end labeling (TUNEL) staining (A) and the activity of caspase-3 analyzed by Western blot (B) at 24 h after DHCA in rats either treated with ANXA1sp or 0.1% DMSO (vehicle) i.p. Results are shown as mean±SD of six animals in each group. *p<0.002.
FIGS. 2A-B. Effect of treatment of ANXA1sp after ischemia-reperfusion injury on cell apoptosis and cell proliferation. (A) Treatment with ANXA1sp inhibits apoptosis (TUNEL staining) and enhances proliferation (PCNA staining) induced by ischemia-reperfusion injury following deep hypothermia circulatory arrest (DHCA). Representative sections from 24 hrs after DHCA in rats treated with either ANXA1sp or 0.1% DMSO (vehicle) (original magnification 300×). (B) ANXA1sp tilts the balance of proximal tubular cell fate toward survival after ischemia-reperfusion injury. A ratio of proliferation/apoptosis (TUNEL) was calculated in proximal tubules 24 hrs after DHCA in rats treated with either ANXA1sp or 0.1% DMSO (vehicle). Results were shown as mean±SD of six rats in each group. *p<0.005 versus vehicle.
FIGS. 3A-C. (A) Protein levels of neutrophil gelatinase associated lipocalin (NGAL) analyzed by Western blot in the kidney 24 hrs after reperfusion following cardiopulmonary bypass (CPB) and deep hypothermic circulatory arrest (DHCA) in vehicle treated animals (Vehicle) versus ANXA1sp treated animals (ANXA1sp). Results are shown as mean±SD. (n=6). *p<0.01 vs. Vehicle. (B) Effect of ANXA1sp on renal NGAL protein levels. Results are representative of six independent experiments in each group. (C) The location of NGAL protein detected by immunohistochemistry in the kidney 24 hrs after reperfusion following DHCA in vehicle treated animals (Vehicle) versus ANXA1sp treated animals (ANXA1sp). NGAL protein was visualized with the NGAL antibody. NGAL positive staining was abundant in ANXA1sp treated animals and mainly located in the proximal tubule cells (red color) (original magnification 200×).
FIG. 4. ANXA1sp treatment represses the renal levels of TNF-α induced by ischemia-reperfusion injury following deep hypothermia circulatory arrest (DHCA) analyzed by ELISA in the kidney 24 hrs after reperfusion in rats either treated with ANXA1sp (open bar, n=6) or vehicle (0.1% DMSO) i.p. (filled bar, n=6). Results are expressed as mean value±SD; *p<0.05 vs. Vehicle.
(§1) NGAL positive staining was abundant in ANXA1sp treated animals and mainly located in the proximal tubule cells (FIG. 3C).

Assay [3] concerns myocardial ischemia-reperfusion. The conditions noted are these: several in vitro and in vivo preclinical models; cited from earlier work.
For assay [4], the system named is Male Sprague-Dawley rats, CPB/DHCA. As to the kind of experiment: Rat CPB/DHCA, ANXA1sp 2 mg/kg i.v. (Example II). In kind it is in vivo. The protocol:
Male Sprague-Dawley rats were prepared for 60 min of DHCA at 18° C. and received either vehicle or ANXA1 sp (2 mg/kg) i.v. at one hour before CPB and one hour after reperfusion. Renal tissue and serum samples were harvested at 3 (n=5), 6 (n=3), and 24 hours (n=3) i.v. after CPB/DHCA. The time course of renal activity of NF-kappa B was determined by a rat specific ELISA kit. Changes of renal and serum levels of the proinflammatory cytokines tumor necrosis factor-alpha (TNF-α) and interleukin (IL)-6 as well as myeloperoxidase (MPO) were measured by ELISA. Changes of renal levels of activated caspase-3 were determined by Western blot. At 24 hours after DHCA, apoptotic proximal tubular cells was identified by TUNEL and quantified by counting the numbers of apoptotic proximal tubular cells in 5 representative renal areas.

In another assay the test system is rat model of CPB/CA. Put plainly: Early renal biomarker GST-μ in rat urine, preclinical model of CPB/CA. In kind it is in vivo. The conditions noted are these: setting of myocardial ischemia/reperfusion, n=3, vs vehicle.
Excerpt: FIG. 5. […] Values presented are means±SD; n=3; *p<0.05 vs. Vehicle.
as §1

The subject of a further assay is myocardial I/R injury. The conditions noted are these: cited from earlier work.
The mark [5] stands for this setting: 6 and 24 h after DHCA, vs vehicle.

“Ac-Ala-Met-Val-Ser-Glu-Phe-Leu-Lys-Gln-Ala-Trp Phe-Ile-Glu-Asn-Glu-Glu-Gln-Glu-Tyr-Val-Gln-Thr-Val-Lys (Ac-AMVSEFLKQAWFIENEEQEYVQTVK) [Ac2-26]”: the “protection against splanchnic artery occlusion and reperfusion injury” value in assay [1] is reported as “protects”. Moreover, the “protection against experimental myocardial ischemia-reperfusion” value in assay [2] was “protects”.
With Ac-Gln-Ala-Trp [ANXA1sp], the “numbers of proximal tubular cells (apoptosis, TUNEL staining)” value with rat model of CPB/DHCA (24 h after DHCA, i.p., vs vehicle, n=6) is listed as “reduced numbers”. In the assay with rat model of CPB/DHCA (24 hrs after DHCA, vs vehicle), the “tubule cell proliferation (PCNA staining)” value is “enhanced”. Besides, the “expression of NGAL in the kidney (Western blot)” value in the assay on rat model of CPB/DHCA (24 hrs after reperfusion following CPB and DHCA, vs vehicle) is “significantly higher expression”. In addition, the “levels of TNF-α protein in the kidney (ELISA)” value with rat model of CPB/DHCA (24 hrs after reperfusion, i.p., vs vehicle) is listed as “significantly lower levels”. The “activity of caspase-3 (Western blot)” value in the assay on rat model of CPB/DHCA (kidney, 24 h after DHCA, i.p., vs vehicle) is recorded as “lower activity”. In the assay with rat model of CPB/DHCA (kidney, 24 hrs after reperfusion, mainly located in proximal tubule cells), the “NGAL positive staining (immunohistochemistry)” value is “abundant”. Moreover, in the assay on rat model of CPB/DHCA (proximal tubules, 24 hrs after DHCA, vs vehicle), the “balance of proximal tubular cell fate (ratio of proliferation/apoptosis)” value is given as “tilted the balance of proximal tubular cell fate toward survival”. The “cardiac-surgery associated acute kidney injury (AKI)” value in the assay with rat model of CPB/DHCA (rat CPB/DHCA, vs vehicle (0.1% DMSO)) is “significantly attenuates”. Further, the cardioprotective efficacy entry in assay [3] is listed as “robust cardioprotective efficacy”. For the same molecule, the “AKI following CPB/DHCA” value in assay [4] is on record as “attenuates”. The “renal activity of NF-kappa B (ELISA)” value in assay [4] (3 and 6 hours after DHCA, vs vehicle) is reported as “significant inhibition”. Moreover, in assay [4] (setting [5]), the “renal levels of IL-6 (ELISA)” value is on record as “significantly suppressed” and the “renal levels of MPO (ELISA)” value was “significantly suppressed”. Besides, in assay [4] (24 h after DHCA, vs vehicle), the “numbers of apoptotic proximal tubular cells (TUNEL)” value is recorded as “reduced numbers”. Also, the “renal levels of TNF-α (ELISA)” value in assay [4] (24 hours after DHCA, vs vehicle) was “significantly suppressed”. Also, the “renal activity of caspase-3 (Western blot)” value in assay [4] (different time points after DHCA, vs vehicle) is on record as “significantly decreased”. In assay [4] (vs vehicle, data not shown), the “release of IL-6 in the serum” value is “significantly reduced release”, the “release of MPO in the serum” value is “significantly reduced release” and the “release of TNF-α in the serum” value is listed as “significantly reduced release”. For the same molecule, the “expression of GST-μ in rat urine” value in the assay on rat model of CPB/CA was “significantly reduced expression”.

B1: ANXA1: 37 kDa protein, member of the annexin superfamily; about 346 amino acids (SEQ ID NO:2) (protein, listed as Homo sapiens)
chain: MAMVSEFLKQAWFIENEEQEYVQTVKSSKGGPGSAVSPYPTFNPSSDVAALHKAIMVKGVDEATIIDILTKRNNAQRQQIKAAYLQETGKPLDETLKKALTGHLEEVVLALLKTPAQFDADELRAAMKGLGTDEDTLIEILASRTNKEIRDINRVYREELKRDLAKDITSDTSGDFRNALLSLAKGDRSEDFGVNEDLADSDARALYEAGERRKGTDVNVFNTILTTRSYPQLRRVFQKYTKYSKHDMNKVLDLELKGDIEKCLTAIVKCATSKPAFFAEKLHQAMKGVGTRHKALIRIMVSRSEIDMNDIKAFYQKMYGISLCQAILDETKGDYEKILVALCGGN
With B1, the leukocyte-dependent myocardial damage entry with myocardial I/R injury (myocardial I/R injury) is “reduces”. Moreover, the “numbers of extravasated leukocytes” value in the assay with myocardial I/R injury (rats treated with ANXA1) is listed as “significantly lower numbers”.
